System: 276233-004-R-J1-PDC KRAS spheroids with HUVEC/MSC, viability
Test: Anticancer human tumor 276233-004-R-J1-PDC patient-derived colon adenocarcinoma cell line growth inhibition [KRAS2]
Conditions: for IC50: curve of first compound; for viability, T/C: stronger effect = lower value
Method in brief: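 Combination screen of spheroid viability in tumor-cell co-cultures with endothelial (HUVEC) and mesenchymal stem cell stroma. Each agent was tested in half-log dilutions, topping at clinical Cmax or at 10 microM without a known Cmax.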

[1] = second compound 0.1 µM, first compound 0.000316 µM
[2] = second compound 0.1 µM, first compound 0.001 µM
[3] = second compound 0.1 µM, first compound 0.00316 µM
[4] = second compound 0.1 µM, first compound 0.01 µM
[5] = second compound 0.1 µM, first compound 0.0316 µM
[6] = second compound 0.316 µM, first compound 0.000316 µM
[7] = second compound 0.316 µM, first compound 0.001 µM
[8] = second compound 0.316 µM, first compound 0.00316 µM
[9] = second compound 0.316 µM, first compound 0.01 µM
[10] = second compound 0.316 µM, first compound 0.0316 µM
[11] = second compound 1 µM, first compound 0.000316 µM
[12] = second compound 1 µM, first compound 0.001 µM
[13] = second compound 1 µM, first compound 0.00316 µM
[14] = second compound 1 µM, first compound 0.01 µM
[15] = second compound 1 µM, first compound 0.0316 µM
[16] = second compound 3.16 µM, first compound 0.000316 µM
[17] = second compound 3.16 µM, first compound 0.001 µM
[18] = second compound 3.16 µM, first compound 0.00316 µM
[19] = second compound 3.16 µM, first compound 0.01 µM
[20] = second compound 3.16 µM, first compound 0.0316 µM
[21] = second compound 10 µM, first compound 0.000316 µM
[22] = second compound 10 µM, first compound 0.001 µM
[23] = second compound 10 µM, first compound 0.00316 µM
[24] = second compound 10 µM, first compound 0.01 µM
[25] = second compound 10 µM, first compound 0.0316 µM
[26] = second compound 0.1 µM, first compound 0.1 µM
[27] = second compound 0.316 µM, first compound 0.1 µM
[28] = second compound 1 µM, first compound 0.1 µM
[29] = second compound 3.16 µM, first compound 0.1 µM
[30] = second compound 10 µM, first compound 0.1 µM
[31] = second compound 0.1 µM, first compound 0.316 µM
[32] = second compound 0.1 µM, first compound 1 µM
[33] = second compound 0.1 µM, first compound 3.16 µM
[34] = second compound 0.1 µM, first compound 10 µM
[35] = second compound 0.316 µM, first compound 0.316 µM
[36] = second compound 0.316 µM, first compound 1 µM
[37] = second compound 0.316 µM, first compound 3.16 µM
[38] = second compound 0.316 µM, first compound 10 µM
[39] = second compound 1 µM, first compound 0.316 µM
[40] = second compound 1 µM, first compound 1 µM
[41] = second compound 1 µM, first compound 3.16 µM
[42] = second compound 1 µM, first compound 10 µM
[43] = second compound 3.16 µM, first compound 0.316 µM
[44] = second compound 3.16 µM, first compound 1 µM
[45] = second compound 3.16 µM, first compound 3.16 µM
[46] = second compound 3.16 µM, first compound 10 µM
[47] = second compound 10 µM, first compound 0.316 µM
[48] = second compound 10 µM, first compound 1 µM
[49] = second compound 10 µM, first compound 3.16 µM
[50] = second compound 10 µM, first compound 10 µM
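Note: cells exposed to agents for seven days before viability read.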
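Throughout, for viability, T/C: 100% = DMSO vehicle control wells and lower values mean fewer viable cells.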

## CC(=O)Nc1cccc(-n2c(=O)n(C3CC3)c(=O)c3c(Nc4ccc(I)cc4F)n(C)c(=O)c(C)c32)c1 + COc1cc2nc(C)nc(NC(C)c3cc(N)cc(C(F)(F)F)c3)c2cc1OC1CCOC1
Second compound 0.1 µM
  IC50: 5.58 nM
Second compound 0.316 µM
  IC50: 4.05 nM
Second compound 1 µM
  IC50: 2.77 nM
Second compound 3.16 µM
  IC50: 1.8 nM
Second compound 10 µM
  IC50: < 0.1 nM
Second compound 0.1 µM, first compound 0.0001 µM
  viability, T/C: 86%
[1]
  viability, T/C: 88.2%
[2]
  viability, T/C: 75.2%
[3]
  viability, T/C: 63%
[4]
  viability, T/C: 37.4%
[5]
  viability, T/C: 17%
Second compound 0.316 µM, first compound 0.0001 µM
  viability, T/C: 88.8%
[6]
  viability, T/C: 79.2%
[7]
  viability, T/C: 65.1%
[8]
  viability, T/C: 54.3%
[9]
  viability, T/C: 38.4%
[10]
  viability, T/C: 23%
Second compound 1 µM, first compound 0.0001 µM
  viability, T/C: 95.2%
[11]
  viability, T/C: 72.6%
[12]
  viability, T/C: 69.7%
[13]
  viability, T/C: 44.7%
[14]
  viability, T/C: 34.3%
[15]
  viability, T/C: 12.3%
Second compound 3.16 µM, first compound 0.0001 µM
  viability, T/C: 80.2%
[16]
  viability, T/C: 76.4%
[17]
  viability, T/C: 59.4%
[18]
  viability, T/C: 39.7%
[19]
  viability, T/C: 21.6%
[20]
  viability, T/C: 8.22%
Second compound 10 µM, first compound 0.0001 µM
  viability, T/C: 26.6%
[21]
  viability, T/C: 21.4%
[22]
  viability, T/C: 21.7%
[23]
  viability, T/C: 14%
[24]
  viability, T/C: 15.2%
[25]
  viability, T/C: 6.73%

## CN(C)C/C=C/C(=O)Nc1cc2c(Nc3ccc(F)c(Cl)c3)ncnc2cc1O[C@H]1CCOC1 + COc1cc2nc(C)nc(NC(C)c3cc(N)cc(C(F)(F)F)c3)c2cc1OC1CCOC1
Second compound 0.1 µM
  IC50: > 100 nM
Second compound 0.316 µM
  IC50: > 100 nM
Second compound 1 µM
  IC50: > 100 nM
Second compound 3.16 µM
  IC50: > 100 nM
Second compound 10 µM
  IC50: > 100 nM
[1]
  viability, T/C: 99.4%
[2]
  viability, T/C: 95.6%
[3]
  viability, T/C: 77.4%
[4]
  viability, T/C: 86.9%
[5]
  viability, T/C: 79.8%
[26]
  viability, T/C: 80.2%
[6]
  viability, T/C: 80%
[7]
  viability, T/C: 82.9%
[8]
  viability, T/C: 71.7%
[9]
  viability, T/C: 61.1%
[10]
  viability, T/C: 68.5%
[27]
  viability, T/C: 74%
[11]
  viability, T/C: 86.1%
[12]
  viability, T/C: 107%
[13]
  viability, T/C: 87.9%
[14]
  viability, T/C: 83.8%
[15]
  viability, T/C: 71.4%
[28]
  viability, T/C: 67.5%
[16]
  viability, T/C: 64.4%
[17]
  viability, T/C: 66.9%
[18]
  viability, T/C: 74.7%
[19]
  viability, T/C: 63%
[20]
  viability, T/C: 56%
[29]
  viability, T/C: 66.3%
[21]
  viability, T/C: 65%
[22]
  viability, T/C: 69%
[23]
  viability, T/C: 67.4%
[24]
  viability, T/C: 65.5%
[25]
  viability, T/C: 63.6%
[30]
  viability, T/C: 63.4%

## COC(=O)c1ccc2c(C(=Nc3ccc(N(C)C(=O)CN4CCN(C)CC4)cc3)c3ccccc3)c(O)[nH]c2c1 + COc1cc2nc(C)nc(NC(C)c3cc(N)cc(C(F)(F)F)c3)c2cc1OC1CCOC1
Second compound 0.1 µM
  IC50: > 10000 nM
Second compound 0.316 µM
  IC50: > 10000 nM
Second compound 1 µM
  IC50: > 10000 nM
Second compound 3.16 µM
  IC50: 2750 nM
Second compound 10 µM
  IC50: < 31.6 nM
[5]
  viability, T/C: 96.3%
[26]
  viability, T/C: 77%
[31]
  viability, T/C: 80.4%
[32]
  viability, T/C: 83.1%
[33]
  viability, T/C: 70%
[34]
  viability, T/C: 83.7%
[10]
  viability, T/C: 94.1%
[27]
  viability, T/C: 71.5%
[35]
  viability, T/C: 74.2%
[36]
  viability, T/C: 65.3%
[37]
  viability, T/C: 70%
[38]
  viability, T/C: 74.2%
[15]
  viability, T/C: 78.6%
[28]
  viability, T/C: 80.9%
[39]
  viability, T/C: 70%
[40]
  viability, T/C: 70.2%
[41]
  viability, T/C: 62.9%
[42]
  viability, T/C: 61.6%
[20]
  viability, T/C: 72.1%
[29]
  viability, T/C: 66.6%
[43]
  viability, T/C: 58.7%
[44]
  viability, T/C: 51.5%
[45]
  viability, T/C: 54.7%
[46]
  viability, T/C: 6.87%
[25]
  viability, T/C: 24.1%
[30]
  viability, T/C: 25.9%
[47]
  viability, T/C: 30.9%
[48]
  viability, T/C: 20.9%
[49]
  viability, T/C: 13.8%
[50]
  viability, T/C: 1.87%

## O=C(c1cc(Cc2n[nH]c(=O)c3ccccc23)ccc1F)N1CCN(C(=O)C2CC2)CC1 + COc1cc2nc(C)nc(NC(C)c3cc(N)cc(C(F)(F)F)c3)c2cc1OC1CCOC1
Second compound 0.1 µM
  IC50: > 10000 nM
Second compound 0.316 µM
  IC50: > 10000 nM
Second compound 1 µM
  IC50: > 10000 nM
Second compound 3.16 µM
  IC50: > 10000 nM
Second compound 10 µM
  IC50: 110 nM
[5]
  viability, T/C: 89.7%
[26]
  viability, T/C: 102%
[31]
  viability, T/C: 92.5%
[32]
  viability, T/C: 96%
[33]
  viability, T/C: 103%
[34]
  viability, T/C: 86.5%
[10]
  viability, T/C: 91.1%
[27]
  viability, T/C: 100%
[35]
  viability, T/C: 98%
[36]
  viability, T/C: 88.9%
[37]
  viability, T/C: 87.3%
[38]
  viability, T/C: 75.8%
[15]
  viability, T/C: 102%
[28]
  viability, T/C: 111%
[39]
  viability, T/C: 96.8%
[40]
  viability, T/C: 89.2%
[41]
  viability, T/C: 96.8%
[42]
  viability, T/C: 86.3%
[20]
  viability, T/C: 71.4%
[29]
  viability, T/C: 77.8%
[43]
  viability, T/C: 85.8%
[44]
  viability, T/C: 66%
[45]
  viability, T/C: 68.3%
[46]
  viability, T/C: 58%
[25]
  viability, T/C: 98.9%
[30]
  viability, T/C: 45.8%
[47]
  viability, T/C: 40.9%
[48]
  viability, T/C: 35.5%
[49]
  viability, T/C: 26%
[50]
  viability, T/C: 21.6%

Reference: PubChem BioAssay AID1963873 (Molecular Pharmacology Branch, DTP, NCI, 2024)
